Results reported in US11958861B2, “Spirocyclic lactams as JAK2 V617F inhibitors” (Incyte Corporation, priority 2021, dated 2024).
pIC50: −log10 of the molar value. Structures can show the parent of a compound that is named as a salt.

Assays:
[1] = target: T1, pseudo-kinase domain (JH2, amino-acids 536-812) of human V617F mutant JAK2 (Homo sapiens, UniProt O60674, F794H/V617F/W659A/W777A); assay: JAK2 LanthaScreen JH2-V617F Binding Assay; details: 1 hour at 25° C.
T1 construct: pseudo-kinase domain (JH2, amino-acids 536-812 with 3 surface mutations W659A, W777A, F794H); purchased BPS Bioscience 79498; host or cells: baculovirus expression system
How it was run: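 Biotinylated His-Avi-tagged JH2 protein was baculovirus-expressed and used at 0.26 nM. It was incubated with compound, 50 nM fluorescent JH2 tracer and 0.25 nM streptavidin-Tb for 1 h at 25 °C in pH 7.5 Tris buffer with MgCl2, BSA, DTT. Non-specific binding was defined with 2 mM ATP. IC50 came from four-parameter fits of TR-FRET signal.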

[2] = target: T2, pseudo-kinase domain (JH2, amino-acids 536-812) of human Wild Type JAK2 (Homo sapiens, UniProt O60674, F794H/W659A/W777A); assay: JAK2 LanthaScreen JH2-WT Binding Assay; details: 1 hour at 25° C.
T2 construct: pseudo-kinase domain (JH2, amino-acids 536-812 with 3 surface mutations W659A, W777A, F794H); purchased BPS Bioscience 79463; host or cells: baculovirus expression system
How it was run: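 Biotinylated C-terminal His-Avi-tagged JH2 (residues 536-812, baculovirus-expressed) at 0.145 nM was incubated with serially diluted compounds, 50 nM fluorescent JAK2-JH2 tracer and 0.25 nM streptavidin-Tb cryptate in pH 7.5 Tris buffer with MgCl2, Brij-35, BSA, EGTA, glycerol and DTT. LanthaScreen TR-FRET was read after 1 hour at 25° C; IC50 came from four-parameter fits.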

[3] = target: T3, catalytic domain (JH1, amino acids 826-1132) of human JAK2 (Homo sapiens, UniProt O60674); assay: JAK2 LanthaScreen JH1 Binding Assay; details: 2 hours at 25° C.
T3 construct: catalytic domain (JH1, amino acids 826-1132) of human JAK2; purchased Carna Biosciences 08-445-20N; host or cells: baculovirus expression system
How it was run: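 FLAG-tagged biotinylated JAK2 JH1 (1.5 nM) incubated with compounds, 50 nM fluorescent tracer and 0.5 nM streptavidin-Tb in Tris pH 7.5 buffer with MgCl2, BSA, DTT, 2 h at 25 °C.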

[4] = target: T4, catalytic domain (JH1, amino acids 808-1132) of human JAK2 (Homo sapiens, UniProt O60674); assay: JAK2 HTRF Enzyme Activity Assay; type: biochemical; details: ATP 30 μM, read-out: ENZ 30UMATP
T4 construct: catalytic domain (JH1, amino acids 808-1132) of human JAK2; His (N); purchased BPS Bioscience 40450; host or cells: baculovirus expression system
How it was run: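 His-tagged JAK2 JH1 from baculovirus, 0.015 nM, incubated with compound, ATP at 30 μM or 1 mM and 500 nM biotinylated peptide, pH 7.5, 60 min at 25° C. HTRF read-out via Eu-anti-phosphotyrosine and streptavidin-APC after EDTA stop; IC50 from four-parameter dose-response fit.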

T3 sequence (O60674 826-1132): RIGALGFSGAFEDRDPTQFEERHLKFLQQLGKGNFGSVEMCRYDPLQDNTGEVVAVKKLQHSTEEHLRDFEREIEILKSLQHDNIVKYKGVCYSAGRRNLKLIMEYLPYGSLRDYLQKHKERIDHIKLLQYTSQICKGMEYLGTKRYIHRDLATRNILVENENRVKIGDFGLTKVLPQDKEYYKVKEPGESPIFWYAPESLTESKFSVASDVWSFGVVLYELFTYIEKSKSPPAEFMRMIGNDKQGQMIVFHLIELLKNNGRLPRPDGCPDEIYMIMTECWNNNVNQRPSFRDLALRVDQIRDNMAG
T4 sequence (O60674 808-1132): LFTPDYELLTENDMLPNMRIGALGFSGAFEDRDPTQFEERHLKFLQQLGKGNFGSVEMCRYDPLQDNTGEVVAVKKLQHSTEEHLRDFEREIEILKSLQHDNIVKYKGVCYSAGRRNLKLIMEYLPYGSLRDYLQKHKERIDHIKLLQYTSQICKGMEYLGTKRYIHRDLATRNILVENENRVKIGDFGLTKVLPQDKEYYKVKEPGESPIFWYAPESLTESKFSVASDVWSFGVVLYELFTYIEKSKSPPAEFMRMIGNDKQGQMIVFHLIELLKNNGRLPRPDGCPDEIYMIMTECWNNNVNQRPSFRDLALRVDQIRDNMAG
T2 sequence (O60674 536-812 W659A/W777A/F794H): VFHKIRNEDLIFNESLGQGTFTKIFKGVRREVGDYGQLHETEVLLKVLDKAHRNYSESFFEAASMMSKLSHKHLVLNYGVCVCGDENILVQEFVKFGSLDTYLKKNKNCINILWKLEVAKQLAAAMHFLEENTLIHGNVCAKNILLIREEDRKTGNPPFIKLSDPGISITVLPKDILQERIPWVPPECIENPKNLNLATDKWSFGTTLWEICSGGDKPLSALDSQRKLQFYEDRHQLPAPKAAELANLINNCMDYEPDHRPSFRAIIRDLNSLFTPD
T1 sequence (O60674 536-812 V617F/W659A/W777A/F794H): as the sequence (O60674 536-812 W659A/W777A/F794H) above, with V82F counted along it

| Compound | pIC50 [1] | pIC50 [2] | pIC50 [3] | pIC50 [4] |
| --- | --- | --- | --- | --- |
| CN1C(=O)C2(CCN(C3(CC#N)CCC3)CC2)c2c1cnc1[nH]c(-c3ccn(C)c3)c(-c3ccc4c(cnn4C)c3)c21 [Example 42, 2-(1-(6-Methyl-1-(1-methyl-1H-indazol-5-yl)-2-(1-methyl-IH-pyrrol-3-yl)-7-oxo-6,7-dihydro-3H-spiro[dipyrrolo[2,3b:3′,2′-d]pyridine-8,4′-piperidin]-1′-yl)cyclobutyl)acetonitrile, trifluoroacetate salt] | ≥ 7.00 | ≥ 7.00 | 5.90 to 6.30 | 6.30 to 7.00 |
| CCS(=O)(=O)N1CC2(C1)CC1(C2)C(=O)N(C)c2cnc3[nH]c(-c4cnn(CC(F)F)c4)c(-c4ccc5c(cnn5C)c4)c3c21 [Example 93, 2″-(1-(2,2-Difluoroethyl)-1H-pyrazol-4-yl)-1-(ethylsulfonyl)-6″-methyl-1″-(1-methyl-1H-indazol-5-yl)-3″,6″-dihydro-7″-dispiro[azetidine-3,1′-cyclobutane-3′,8″-dipyrrolo[2,3-b:3′,2′-d]pyridin]-7″-one, trifluoroacetate salt] | ≥ 7.00 | ≥ 7.00 | 5.60 to 5.90 | 5.60 to 5.90 |
| CN1C(=O)C2(CCN(C3(CC#N)CCC3)CC2)c2c1cnc1[nH]c(-c3cnn(CC(C)(C)O)c3)c(-c3cc4cnccc4s3)c21 [Example 48, 2-(1-(2-(1-(2-Hydroxy-2-methylpropyl)-1H-pyrazol-4-yl)-6-methyl-7-oxo-1-(thieno[3,2-c]pyridin-2-yl)-6,7-dihydro-3H-spiro[dipyrrolo[2,3-b:3′,2′-d]pyridine-8,4′-piperidin]-1′-yl)cyclobutyl)acetonitrile, trifluoroacetate salt] | ≥ 7.00 | ≥ 7.00 | 6.30 to 7.00 | 6.30 to 7.00 |
| CCNC(=O)N1CC(CC#N)(N2CCC3(CC2)C(=O)N(C)c2cnc4[nH]c(-c5cnn(C)c5)c(-c5ccccc5)c4c23)C1 [Example 25, 3-(Cyanomethyl)-N-ethyl-3-(6-methyl-2-(1-methyl-1H-pyrazol-4-yl)-7-oxo-1-phenyl-6,7-dihydro-3H-spiro[dipyrrolo[2,3-b:3′,2′-d]pyridine-8,4′-piperidin]-1′-yl)azetidine-1-carboxamide, trifluoroacetate salt] | ≥ 7.00 | ≥ 7.00 | 5.90 to 6.30 | 6.30 to 7.00 |
| CN1C(=O)C2(CCN(CCC#N)CC2)c2c1cnc1[nH]c(-c3ccc(CN4CCC(S(C)(=O)=O)CC4)cc3)c(-c3ccc4c(cnn4C)c3)c21 [Example 5, 3-(6-Methyl-1-(1-methyl-1H-indazol-5-yl)-2-(4-((4-(methylsulfonyl)piperidin-1-yl)methyl)phenyl)-7-oxo-6,7-dihydro-3H-spiro[dipyrrolo[2,3-b:3′,2′-d]pyridine-8,4′-piperidin]-1′-yl)propanenitrile trifluoroacetate salt] | ≥ 7.00 | ≥ 7.00 | 5.90 to 6.30 | 5.90 to 6.30 |
| CN1C(=O)C2(CCN(C3(CC#N)CCC3)CC2)c2c1cnc1[nH]c(-c3cnn(CC(C)(C)O)c3)c(-c3ccc(C4CC4)cc3)c21 [Example 49, 2-(1-(1-(4-Cyclopropylphenyl)-2-(1-(2-hydroxy-2-methylpropyl)-1H-pyrazol-4-yl)-6-methyl-7-oxo-6,7-dihydro-3H-spiro[dipyrrolo[2,3-b:3′,2′-d]pyridine-8,4′-piperidin]-1′-yl)cyclobutyl)acetonitrile, trifluoroacetate salt] | ≥ 7.00 | ≥ 7.00 | < 5.60 | < 5.60 |
| CN1C(=O)C2(CCN(C3(CC#N)CCC3)CC2)c2c1cnc1[nH]c(-c3cnn(CC4CC4)c3)c(-c3ccc4c(cnn4C)c3)c21 [Example 39, 2-(1-(2-(1-(Cyclopropylmethyl)-1H-pyrazol-4-yl)-6-methyl-1-(1-methyl-1H-indazol-5-yl)-7-oxo-6,7-dihydro-3H-spiro[dipyrrolo[2,3-b:3′,2′-d]pyridine-8,4′-piperidin]-1′-yl)cyclobutyl)acetonitrile, trifluoroacetate salt] | ≥ 7.00 | ≥ 7.00 | 6.30 to 7.00 | 6.30 to 7.00 |
